# Test results published in patent US7786356B2, “Method for the production of calendic acid, a fatty acid containing delta 8,10,12 conjugated double bonds and related fatty acids having a modification at the delta 9 position” (E.I. du Pont de Nemours and Company, priority 1999, dated 2010).
# System: pigs (barrows)
# Experiment: Belly (fat) compression test in pigs fed conjugated fatty acids
# Format: in vivo, pig
# Description: Experiments were conducted to evaluate the effects of feeding eleostearic (18:3) conjugated fatty acids on pig growth, carcass characteristics, and fat firmness. Twenty-four pigs (barrows, castrated males, from PIC genetics) with a capacity for high rates of daily lean growth and reduced back fat were randomly assigned by litter mates, weight, and block to three dietary treatments. Group one was fed normal corn feed, group two received normal corn feed supplemented with CLA, and the third group received normal corn feed supplemented with conjugated linolenic acids, i.e., ClnAs (18:3 conjugated fatty acids). Pigs were penned individually and identified by ear tattoo. […]
# Live weights were recorded to determine average daily gains Phase 1 (150 to 200 lbs), and Phase 2 (200 to 250 lbs). […]
# When pigs reached 250 pounds body weight they were slaughtered, processed and standard carcass measurements were collected. […] Bellies from the eight pigs in each study group were evaluated for fat firmness evaluated by measuring belly thickness before and after compression. […] Fat compression was quantified by subtracting the compressed belly thickness from the initial belly thickness. Belly thickness was measured using a micrometer. Data were analyzed as a randomized complete block design using the GLM (General Linear Model) procedure of SAS (Statistical Analysis Systems). […]
substance,measurement,setting,value
Conjugated linoleic acid [NC + CLA],fat firmness in pigs (in words),"addition to NC diets, versus NC diet",greater fat firmness
same,Pork Belly Compression,"initial minus compressed belly thickness, 50 lb weight for one hour, 0.50% conjugated fatty acid in diet, smaller number = greater firmness, 8 pigs per group",28.0 mm
